The results in this text go back to patent US8357686B2, “Aryl-substituted polycyclic amines, method for the production thereof, and use thereof as a medicament” (Sanofi-Aventis Deutschland GmbH, priority 2004, dated 2013).

This experiment concerns female NMRI mice. In words: Anorectic effect: cumulative condensed milk consumption in fasted mice. It counts as in vivo. Conditions: oral dose 30 mg/kg by gavage after withdrawal of feed for 17 hours, condensed milk offered 30 minutes after administration, consumption determined for 7 hours, compared with vehicle-treated control animals. The protocol: The anorectic effect was tested on female NMRI mice. After withdrawal of feed for 17 hours, the test product was administered by gavage. The animals were housed singly with free access to drinking water and were offered condensed milk 30 minutes after administration of the product. The condensed milk consumption was determined every half hour for 7 hours, and the general wellbeing of the animals was observed. The measured milk consumption was compared with the vehicle-treated control animals.

`O=C(Nc1ccc(OC[C@@H]2CCCN3CCCC[C@H]23)cc1)N1CCC(c2ccc(Cl)cc2)CC1` [Example 37]: the “Reduction in cumulative milk consumption as % of the control” value was determined as 24%.

For `CCCCOc1ccc(C(=O)Nc2ccc(OC[C@@H]3CCCN4CCCC[C@H]34)cc2)cc1` [Example 2, 4-Butoxy-N-{4-[(1R,9aR)-1-(octahydroquinolizin-1-yl)methoxy]phenyl}-benzamide], the “Reduction in cumulative milk consumption as % of the control” value is on record as 73%.
